The source of these data is article PMC11513854, “De novo GTP synthesis is a metabolic vulnerability for the interception of brain metastases” (Cell Reports Medicine, 2024).

The structures appear in SMILES notation.

One data set relates to MDR1-MDCKII cells. In words: Bi-directional permeability via MDR1-MDCKII cells. Format: in vitro ADME. On the procedure:
(§1) MDR1-MDCKII permeability assays were performed by Wuxi AppTec Co. Briefly, MDR1-MDCK1 cells were seeded onto polycarbonate membranes in 96-well insert system plates and allowed to develop into monolayers. […] The plate was incubated for 2.5 h (37°C, 5% CO2) and the media was sampled on either side and the compound present was quantified by LC-MS/MS and the concentrations were used to calculate the efflux ratio. Digoxin (10 μM), nadolol (2 μM), and metoprolol (2 μM) were used as controls.

Another data set concerns MDR1. In words: Bi-directional permeability via MDR1-MDCKII cells. Format: in vitro ADME. Particulars: dog, MDCK-MDR1, pH 7.4; 2 μM (digoxin 10 μM), 2.5 h. On the procedure:
as §1

In the next data set the test system is lung-BMIC line (BT478). Description: Dose-response assay, PrestoBlue. The data set is classed as cell-based, human. Particulars: Homo sapiens; BT478, 72-h treatment, PrestoBlue; N/A, not applicable; read-out: Lung-BM IC50. On the procedure:
(§2) For preliminary drug screening, drugs were plated at a concentration of 10 μM in a 96-well plate, in triplicate at a density of 1000 cells/well, and incubated at 37°C with a humidified atmosphere of 5% CO2 for three days. Vehicle controls for cell death are used in each functional experiment. Following treatment, PrestoBlue (20 μL, Invitrogen), a resazurin-based cell viability reagent and fluorescence indicator of cell metabolism, was added to each well to estimate proliferation approximately 2 h prior to measuring fluorescence intensity via FLUOstar Omega Fluorescence 556 Microplate reader (BMG LABTECH) at an excitation and emission wavelength of 540 nm and 590 nm, respectively. Results were analyzed using Omega analysis software.
Dose-response assays were conducted using the same protocol apart from drugs being plated using 2-fold serial dilutions (20 μM - 39 nM) as previously described.[66] The half maximal inhibitory concentration (IC50) is determined by plotting percent cell viability by the logarithmic concentration of drug. IC80 concentrations will be used for subsequent functional assays (cell proliferation, sphere formation), as determined by the following formula: ICF=100−F/F^1/H×IC50 where F = fraction of maximal response and H = hill slope.

In a further data set the test system is neural stem cells. Description: Dose-response assay, PrestoBlue, normal brain cell control. The data set is classed as cell-based. Particulars: Homo sapiens, 72-h treatment, N/A, not applicable. From the text:
BM cell lines from primary lung (BT478, BT530), breast (BT923, BT930) and melanoma (BT673, BT917) cancers are derived from primary patient samples with written consent from the patients and approved by the Hamilton Health Sciences McMaster Health Sciences Research Ethics Board (REB #07366), in compliance with Canada’s Tri-Council Policy Statement on the Ethical Conduct for Research Involving Humans and International Ethical guidelines for Biomedical Research Involving Human Subjects. MDA-MB-231 was purchasedfrom American Type Culture Collection and used to generate a brain metastasis derivate following injection into the mammary fat pad and isolation from the brain at human endpoint. Cell lines are maintained in NeuroCult Complete (NCC) media consisting of NeuroCult NS-A Basal Medium (Stemcell technology #05750) and supplemented with 50 mL of NeuroCult Supplement, 20 ng/mL epidermal growth factor (EGF), 10 ng/mL fibroblast growth factor (FGF), 2 μg/mL heparin and 1% penicillin-streptomycin. Human fetal neural stem cells (hNSCs) are derived in-house using a previously described protocol.[62] Normal human astrocytes are purchased from American Type Culture Collection. All cell lines were maintained at 37°C with a humidified atmosphere of 5% CO2.
The half maximal inhibitory concentration (IC50) is determined by plotting percent cell viability by the logarithmic concentration of drug. IC80 concentrations will be used for subsequent functional assays (cell proliferation, sphere formation), as determined by the following formula: ICF=100−F/F^1/H×IC50 where F = fraction of maximal response and H = hill slope.

Data set [1] can be described thus: Brain homogenate binding, equilibrium dialysis. Format: in vitro ADME, mouse. Particulars: CD-1, mouse, pooled brain homogenate, pH 7.4, 37°C. The method, then: The samples were applied to a dialysis well plate and sealed with dialysis membrane. Dialysis buffer (100 mM sodium phosphate pH 7.4, 150 mM NaCl) was applied to opposite side of the membrane (receiver well of the plate), and samples were incubated at 37°C with 5% CO2 for 4 h. Following completion of incubation period, samples were recovered from each side of the dialysis membrane and processed by protein precipitation, and analysis by LC-MS/MS for compound concentration. A corresponding set of samples was also prepared and stop solution (acetonitrile containing 200 ng/mL tolbutamide and 200 ng/mL labetalol) was immediately added, and samples were obtained from each side of the dialysis plate for mass spectrometric analysis.

Data set [2] deals with patient-derived lung-BMIC line (BT478). Description: Preliminary drug screen of CMap compounds, PrestoBlue viability. Format: cell-based, human. Particulars: 10 μM, 72 h, PrestoBlue readout.
Source text: In this work, we aimed to identify potential druggable targets for BM, by characterizing the transcriptomes of pre-metastatic lung-, breast-, and melanoma-BMICs (see Figure 1A).[13]^,[14] We identified 3,951 genes that are commonly differentially expressed in the pre-metastatic cohort of cells compared to BMICs isolated from established patient tumors (Figure 1C).[14] We input the shared gene signature of pre-metastatic BMICs (defined by the commonly shared gene signature from BMICs of all three primary tumor cohorts) as a query signature for computational CMap[17] analysis to identify compounds that evoke opposing transcriptional changes (see Figure 1A). […]
as §2, with “Vehicle controls for cell death are used in each functional experiment.” left out

For the molecule `CC(C)(C)NCC(O)COc1cccc2c1CC(O)C(O)C2` (stereo not drawn) [Nadolol], the “Rank of Papp” value in the data set with MDR1-MDCKII cells is “Low”. Further, the Papp A→B at 2.5 h, 2 μM in the data set on MDR1 is 0.198 ×10⁻⁶ cm/s.

With `C[C@H]1O[C@@H](O[C@H]2[C@@H](O)C[C@H](O[C@H]3[C@@H](O)C[C@H](O[C@H]4CC[C@@]5(C)[C@H](CC[C@@H]6[C@@H]5C[C@@H](O)[C@]5(C)[C@@H](C7=CC(=O)OC7)CC[C@]65O)C4)O[C@@H]3C)O[C@@H]2C)C[C@H](O)[C@@H]1O` [Digoxin], the “Rank of Papp” value with MDR1-MDCKII cells is reported as “Low”. In the data set with MDR1, the Papp A→B at 2.5 h, 2 μM was determined as 0.556 ×10⁻⁶ cm/s; the Papp B→A at 2.5 h, 2 μM worked out at 11.8 ×10⁻⁶ cm/s; the efflux ratio at 2.5 h, 2 μM was determined as 21.2. For the molecule `COc1c(C)c2c(c(O)c1C/C=C(\C)CCC(=O)NCCN1CCCC1)C(=O)OC2` [Compound 6], the IC50 with lung-BMIC line (BT478) was 24.7 µM; in the data set with neural stem cells, 70.8 µM. On to `COc1c(C)c2c(c(O)c1C/C=C(\C)CCC(=O)N1CCN(C)CC1)C(=O)OC2` [Compound 4], for which, in the data set on neural stem cells, the half-inhibitory concentration (IC50) was found to be 493 µM. The molecule `CC(C)NCC(O)COc1cccc2ccccc12` (stereo not drawn) [Propranolol] registered a fraction unbound at 4 h, 2 μM in data set [1] of 0.023. On to `CN1CCc2cccc3c2[C@H]1Cc1ccc(O)c(O)c1-3` [apomorphine], for which the “viability of lung-BMICs (BT478) compared to vehicle control” value in data set [2] was “significantly inhibited BMIC viability”. With `COCCc1ccc(OCC(O)CNC(C)C)cc1` (stereo not drawn) [Metoprolol], in the data set on MDR1-MDCKII cells, the “Rank of Papp” value was “High”. The Papp A→B at 2.5 h, 2 μM with MDR1 came out at 29.5 ×10⁻⁶ cm/s. On to `COc1c(C)c2c(c(O)c1C/C=C(\C)CCC(=O)OCCN1CCN(C(=O)OC(C)(C)C)CC1)C(=O)OC2` [Compound 2], for which the results for the IC50 with lung-BMIC line (BT478) and with neural stem cells were 17.1 µM and 353 µM, respectively.

As for `COc1c(C)c2c(c(O)c1C/C=C(\C)CCC(=O)OCCN1CCOCC1)C(=O)OC2` [MMF (1), Mycophenolate mofetil], the figures for the IC50 with lung-BMIC line (BT478) and in the data set with neural stem cells were 48 µM and 31.2 µM, respectively. `COc1c(C)c2c(c(O)c1C/C=C(\C)CCC(=O)NCCCN1CCC1)C(=O)OC2` [Compound 5] had an IC50 in the data set with neural stem cells of 182 µM.
